Literature values, collected in US20260207488A1, “Liquid pharmaceutical composition containing flecainide and process for the preparation thereof” (Colonis Pharma Ltd, priority 2022, published 2026).

What was measured:
[1] = water

For CC(=O)O.O=C(NCC1CCCCN1)c1cc(OCC(F)(F)F)ccc1OCC(F)(F)F (centres unmarked) [Flecainide Acetate, N-(2-piperidinylmethyl)-2,5-bis(2,2,2-trifluoroethoxy)benzamide monoacetate], the “solubility (BCS)” value is listed as “high solubility” and the aqueous solubility [1] is listed as “about 48.0 mg/mL”.
